What is called EC50 is the concentration needed to bring the measured effect to its halfway point.

Here are results for 27 compounds from patent US20240415918A1, “Polypeptide and its use as a CCK receptor agonist/antagonist” (Centre for Regenerative Medicine & Health, Hong Kong …, priority 2021, published 2024).

The test concerns the target T1, CCK-B receptors (CHO-CCK) (Homo sapiens, UniProt P32239).
T1 construct: expressed in transfected cells; host or cells: CHO (CHO-CCK model cells)
T1 sequence (P32239 1-447): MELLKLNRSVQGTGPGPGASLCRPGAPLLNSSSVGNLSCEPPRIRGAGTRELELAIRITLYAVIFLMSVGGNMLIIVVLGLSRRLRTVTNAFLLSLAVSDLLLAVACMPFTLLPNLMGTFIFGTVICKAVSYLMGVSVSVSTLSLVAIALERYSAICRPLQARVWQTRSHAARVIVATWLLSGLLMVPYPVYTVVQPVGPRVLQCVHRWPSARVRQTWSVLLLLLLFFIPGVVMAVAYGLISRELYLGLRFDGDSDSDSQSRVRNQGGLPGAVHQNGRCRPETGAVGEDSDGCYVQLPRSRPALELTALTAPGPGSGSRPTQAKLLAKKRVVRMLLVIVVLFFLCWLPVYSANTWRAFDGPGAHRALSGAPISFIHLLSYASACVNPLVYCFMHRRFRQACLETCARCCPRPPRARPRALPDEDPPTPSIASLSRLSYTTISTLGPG
The test can be described thus: Calcium flux (Fluo-8) agonist test on CHO-CCK model cells. In kind it is cell-based. The settings on record: for EC50: CHO-CCK cells, compound alone; for Agonistic Activity (%) at 10 μM: compound at 10 μM, percentage of signal of 20 nM CCK8 alone. How it is done: • To detect changes in intracellular calcium ion concentration after the compound acts on model cells containing CCK-B receptors (CHO-CCK).
• 1. The compound was formulated to a 10 mM mother liquor with DMSO, and then diluted into a series of 9 concentrations with a 3-fold gradient to form a 1000× stock solution.
2.1 Agonist • The compound stock solution was subjected to 200-fold dilution with HHBS buffer to form a 5× working solution.
• 1. Plate CHO-CCK cells in a 96-well plate with media containing 1% FBS, 30,000 cells/well/100 μL, and incubate overnight at 37° C. • 2. Prepare 1×Fluo-8 analysis buffer: mix 9 mL of HHBS, 1 mL of 10× Pluronic F127 Plus and 20 μL of Fluo-8 thoroughly for later use. • 3. Add Fluo-8 dye working solution to the cell plate, 100 μL/well. First incubate in a 37° C. incubator for 30 min, and then take it out and incubate at room temperature in the dark for 30 min. • 4. In the process of incubating cells, the compounds to be detected were prepared with HHBS. • 5.
The agonism/antagonism EC50 of the compound can be obtained by plotting the fitting curve with the agonism/antagonism percentage as Y-axis and the concentration of the compound as X-axis.
A general note: Calcium assays in cells follow changes in intracellular calcium, usually with a dye or a luminescent sensor.

Where a SMILES comes first, the peptide text is derived from it. [ ]: non-standard residue; d: D form. Some results are limits rather than exact numbers.

Turning to `CSCC[C@H](NC(=O)[C@H](CC(=O)O)NC(=O)[C@@H](N)Cc1ccccc1)C(=O)N[C@@H](Cc1c[nH]c2ccccc12)C(=O)O` [HT-1, Phe-Asp-Met-Trp-COOH] (H-FDMW-OH), for the setting “bound in μM”, the 50% effective concentration (EC50) is greater than 10 µM.

For `CSCC[C@H](NC(=O)[C@H](CC(=O)O)NC(=O)[C@H](Cc1ccccc1)NC(C)=O)C(=O)N[C@@H](Cc1c[nH]c2ccccc12)C(=O)O` [HT-2, Ac-Phe-Asp-Met-Trp-COOH], under “bound in μM”, the EC50 was greater than 10 µM.

Consider `CSCC[C@H](NC(=O)[C@H](CC(=O)O)NC(=O)[C@H](Cc1ccccc1)NC(C)=O)C(=O)N[C@@H](Cc1c[nH]c2ccccc12)C(=O)O` [HT-3, Ac-Phe-Asp-Met-Trp-NH2], for which, where the note is “bound in μM”, the EC50 was greater than 10 µM.

In the case of `CSCC[C@H](NC(=O)[C@@H](CC(=O)O)NC(=O)[C@H](Cc1ccccc1)NC(C)=O)C(=O)N[C@@H](Cc1c[nH]c2ccccc12)C(=O)O` [HT-4, Ac-Phe-D-Asp-Met-Trp-NH2], the concentration for a half-maximal effect (EC50) (bound in μM) is greater than 10 µM.

Turning to `CSCC[C@@H](NC(=O)[C@H](CC(=O)O)NC(=O)[C@H](Cc1ccccc1)NC(C)=O)C(=O)N[C@@H](Cc1c[nH]c2ccccc12)C(=O)O` [HT-5, Ac-Phe-Asp-D-Met-Trp-NH2], the 50% effective concentration (EC50) (bound in μM) was greater than 10 µM.

Take `CSCC[C@H](NC(=O)[C@H](CC(=O)O)NC(=O)[C@H](Cc1ccccc1)NC(C)=O)C(=O)N[C@H](Cc1c[nH]c2ccccc12)C(N)=O` [HT-6, Ac-Phe-Asp-Met-D-Trp-NH2] (Ac-FDM[dW]-NH2): the EC50 (bound in μM) was greater than 10 µM.

As for `CSCC[C@@H](NC(=O)[C@@H](CC(=O)O)NC(=O)[C@H](N)Cc1ccccc1)C(=O)N[C@H](Cc1c[nH]c2ccccc12)C(=O)O` [HT-7, D-Phe-D-Asp-D-Met-D-Trp-COOH] (H-[dF][dD][dM][dW]-OH), the EC50 (bound in μM) was greater than 10 µM.

`CSCC[C@@H](NC(=O)[C@@H](CC(=O)O)NC(=O)[C@@H](Cc1ccccc1)NC(C)=O)C(=O)N[C@H](Cc1c[nH]c2ccccc12)C(N)=O` [HT-8, Ac-D-Phe-D-Asp-D-Met-D-Trp-NH2] (Ac-[dF][dD][dM][dW]-NH2): the concentration for a half-maximal effect (EC50) (bound in μM) was greater than 10 µM.

As for `C[S+]([O-])CC[C@H](NC(=O)[C@H](N)Cc1c[nH]c2ccccc12)C(=O)N[C@@H](CC(=O)O)C(=O)N[C@@H](Cc1ccccc1)C(N)=O` (stereo partly drawn) [HT-16, D-Trp-Met(O)-Asp-Phe-NH2], the “Agonistic Activity (%) at 10 μM” value turned out to be 19.11%.

Take `CS(=O)(=O)CC[C@H](NC(=O)[C@H](N)Cc1c[nH]c2ccccc12)C(=O)N[C@@H](CC(=O)O)C(=O)N[C@@H](Cc1ccccc1)C(N)=O` [HT-17, D-Trp-Met(O2)-Asp-Phe-NH2]: the “Agonistic Activity (%) at 10 μM” value came out at 19.12%.

`COC(=O)C[C@H](NC(=O)[C@H](CCSC)NC(=O)[C@H](N)Cc1c[nH]c2ccccc12)C(=O)N[C@@H](Cc1ccccc1)C(N)=O` [HT-18, D-Trp-Met-Asp(OMe)-Phe-NH2]: the “Agonistic Activity (%) at 10 μM” value came to 7.59%.

Consider `COC(=O)C[C@H](NC(=O)[C@H](CC[S+](C)[O-])NC(=O)[C@H](N)Cc1c[nH]c2ccccc12)C(=O)N[C@@H](Cc1ccccc1)C(N)=O` (stereo partly drawn) [HT-20, D-Trp-Met(O)-Asp(OMe)-Phe-NH2], for which the “Agonistic Activity (%) at 10 μM” value is −9.73%.

On to `COC(=O)C[C@H](NC(=O)[C@H](CCS(C)(=O)=O)NC(=O)[C@H](N)Cc1c[nH]c2ccccc12)C(=O)N[C@@H](Cc1ccccc1)C(N)=O` [HT-22, D-Trp-Met(O2)-Asp(OMe)-Phe-NH2], for which the “Agonistic Activity (%) at 10 μM” value was found to be 0.98%.

Consider `CSCC[C@H](NC(=O)[C@H](N)Cc1c[nH]c2ccccc12)C(=O)N[C@@H](CC(=O)O)C(=O)N[C@@H](Cc1ccc(N=[N+]=[N-])cc1)C(N)=O` [HT-31, D-Trp-Met-Asp-Phe(4-N3)-NH2], for which the “Agonistic Activity (%) at 10 μM” value turned out to be 6.07%.

Turning to `C[S+]([O-])CC[C@H](NC(=O)[C@H](N)Cc1c[nH]c2ccccc12)C(=O)N[C@@H](CC(=O)O)C(=O)N[C@@H](Cc1ccccc1[N+](=O)[O-])C(N)=O` (stereo partly drawn) [HT-41, D-Trp-Met(O)-Asp-Phe(2-NO2)-NH2], the “Agonistic Activity (%) at 10 μM” value was −11.17%.

Turning to `Cc1ccc(C[C@H](NC(=O)[C@H](CC(=O)O)NC(=O)[C@H](CC[S+](C)[O-])NC(=O)[C@H](N)Cc2c[nH]c3ccccc23)C(N)=O)cc1` (stereo partly drawn) [HT-47, D-Trp-Met(O)-Asp-Phe(4-Me)-NH2], the “Agonistic Activity (%) at 10 μM” value amounted to 26.99%.

`C[S+]([O-])CC[C@H](NC(=O)[C@H](N)Cc1c[nH]c2ccccc12)C(=O)N[C@@H](CC(=O)O)C(=O)N[C@@H](Cc1ccc(N=[N+]=[N-])cc1)C(N)=O` (stereo partly drawn) [HT-48, D-Trp-Met(O)-Asp-Phe(4-N3)-NH2]: the “Agonistic Activity (%) at 10 μM” value turned out to be 17.23%.

On to `C[S+]([O-])CC[C@H](NC(=O)[C@H](N)Cc1c[nH]c2ccccc12)C(=O)N[C@@H](CC(=O)O)C(=O)N[C@@H](Cc1ccc(C#N)cc1)C(N)=O` (stereo partly drawn) [HT-49, D-Trp-Met(O)-Asp-Phe(4-CN)-NH2], for which the “Agonistic Activity (%) at 10 μM” value turned out to be 1.03%.

Consider `C[S+]([O-])CC[C@H](NC(=O)[C@H](N)Cc1c[nH]c2ccccc12)C(=O)N[C@@H](CC(=O)O)C(=O)N[C@@H](Cc1ccc([N+](=O)[O-])cc1)C(N)=O` (stereo partly drawn) [HT-50, D-Trp-Met(O)-Asp-Phe(4-NO2)-NH2], for which the “Agonistic Activity (%) at 10 μM” value came to 11.85%.

Turning to `C[S+]([O-])CC[C@H](NC(=O)[C@H](N)Cc1c[nH]c2ccccc12)C(=O)N[C@@H](CC(=O)O)C(=O)N[C@@H](Cc1ccc(Br)cc1)C(N)=O` (stereo partly drawn) [HT-51, D-Trp-Met(O)-Asp-Phe(4-Br)-NH2], the “Agonistic Activity (%) at 10 μM” value was found to be 17.18%.

For `C[S+]([O-])CC[C@H](NC(=O)[C@H](N)Cc1c[nH]c2ccccc12)C(=O)N[C@@H](CC(=O)O)C(=O)N[C@@H](Cc1ccc(Cl)cc1)C(N)=O` (stereo partly drawn) [HT-52, D-Trp-Met(O)-Asp-Phe(4-Cl)-NH2], the “Agonistic Activity (%) at 10 μM” value turned out to be 15.71%.

Turning to `C[S+]([O-])CC[C@H](NC(=O)[C@H](N)Cc1c[nH]c2ccccc12)C(=O)N[C@@H](CC(=O)O)C(=O)N[C@@H](Cc1ccc(I)cc1)C(N)=O` (stereo partly drawn) [HT-54, D-Trp-Met(O)-Asp-Phe(4-I)-NH2], the “Agonistic Activity (%) at 10 μM” value worked out at 3.14%.

With `C[S+]([O-])CC[C@H](NC(=O)[C@H](N)Cc1c[nH]c2ccccc12)C(=O)N[C@@H](CC(=O)O)C(=O)N[C@@H](Cc1cc(F)cc(F)c1)C(N)=O` (stereo partly drawn) [HT-56, D-Trp-Met(O)-Asp-Phe(3,5-DiF)-NH2], the “Agonistic Activity (%) at 10 μM” value amounted to 43.98%.

Consider `C[S+]([O-])CC[C@H](NC(=O)[C@H](N)Cc1c[nH]c2ccccc12)C(=O)N[C@@H](CC(=O)O)C(=O)N[C@@H](Cc1cc(F)c(F)c(F)c1)C(N)=O` (stereo partly drawn) [HT-57, D-Trp-Met(O)-Asp-Phe(3,4,5-TriF)-NH2], for which the “Agonistic Activity (%) at 10 μM” value is reported as 56.81%. In addition, the EC50 (100% = 20 nM CCK8) was 6.79 µM.

With `CS(=O)(=O)CC[C@H](NC(=O)[C@H](N)Cc1c[nH]c2ccccc12)C(=O)N[C@@H](CC(=O)O)C(=O)N[C@@H](Cc1ccccc1[N+](=O)[O-])C(N)=O` [HT-58, D-Trp-Met(O2)-Asp-Phe(2-NO2)-NH2], the “Agonistic Activity (%) at 10 μM” value worked out at 23.63%.

As to `CS(=O)(=O)CC[C@H](NC(=O)[C@H](N)Cc1c[nH]c2ccccc12)C(=O)N[C@@H](CC(=O)O)C(=O)N[C@@H](Cc1cccc(I)c1)C(N)=O` [HT-62, D-Trp-Met(O2)-Asp-Phe(3-I)-NH2], the “Agonistic Activity (%) at 10 μM” value came out at 4.26%. Under “100% = 20 nM CCK8”, the EC50 stood at 4.37 µM.

As for `Cc1ccc(C[C@H](NC(=O)[C@H](CC(=O)O)NC(=O)[C@H](CCS(C)(=O)=O)NC(=O)[C@H](N)Cc2c[nH]c3ccccc23)C(N)=O)cc1` [HT-64, D-Trp-Met(O2)-Asp-Phe(4-Me)-NH2], the “Agonistic Activity (%) at 10 μM” value is 17.43%.
